20 compounds from PubChem BioAssay AID328 (DTP/NCI, 2004) can be followed below.

Where “and” joins values, the source holds several entries; their conditions need not be identical. Equal entries are not always repeated. Toxic doses and inconclusive results are not listed.

In this assay the test system is BDF1 mice, P388 leukemia ip, median survival T/C. As to the kind of experiment: NCI In Vivo Anticancer Drug Screen. Data for tumor model P388 Leukemia (intraperitoneal) in B6D2F1 (BDF1) mice. The conditions noted are these: endpoint: median survival time, higher = longer survival. The essentials:
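Antitumour effect was judged in vivo: survival in drug-treated mice, normalised to that of vehicle-dosed controls, gives the reported T/C.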

[1] abbreviates: dose: 50.0 mg/kg/injection, schedule: Q01DX009 (ip), vehicle: saline.
Setting [2] is: dose: 100.0 mg/kg/injection, schedule: Q01DX009 (ip), vehicle: saline.
The mark [3] stands for this setting: dose: 100.0 mg/kg/injection, schedule: Q04DX003 (ip), vehicle: saline.
Setting [4] is: dose: 200.0 mg/kg/injection, schedule: Q01DX009 (ip), vehicle: saline.
Setting [5] is: dose: 200.0 mg/kg/injection, schedule: Q04DX003 (ip), vehicle: saline.
Setting [6] is: dose: 1.56 mg/kg/injection, schedule: Q01DX009 (ip), vehicle: saline with Tween-80.
Where [7] appears, read: dose: 6.25 mg/kg/injection, schedule: Q01DX009 (ip), vehicle: saline with Tween-80.
[8] abbreviates: dose: 25.0 mg/kg/injection, schedule: Q01DX009 (ip), vehicle: saline with Tween-80.
The mark [9] stands for this setting: dose: 50.0 mg/kg/injection, schedule: Q01DX009 (ip), vehicle: saline with Tween-80.
Setting [10] is: dose: 25.0 mg/kg/injection, schedule: Q01DX009 (ip), vehicle: saline.
The mark [11] stands for this setting: dose: 25.0 mg/kg/injection, schedule: Q04DX003 (ip), vehicle: saline.
[12] abbreviates: dose: 12.5 mg/kg/injection, schedule: Q01DX009 (ip), vehicle: saline.
Where [13] appears, read: dose: 50.0 mg/kg/injection, schedule: Q01DX010 (ip), vehicle: saline.
Setting [14] is: dose: 100.0 mg/kg/injection, schedule: Q01DX010 (ip), vehicle: saline.
The mark [15] stands for this setting: dose: 200.0 mg/kg/injection, schedule: Q01DX010 (ip), vehicle: saline.
[16] abbreviates: dose: 400.0 mg/kg/injection, schedule: Q01DX010 (ip), vehicle: saline.

Take `c1ccc(OP2OCCO2)cc1`: the T/C is, setting by setting: under setting [1], 104 % of control; under setting [2], 104 % of control; under setting [3], 87 % of control; under setting [4], 95 % of control; under setting [5], 112 % of control.
For `CC(=O)C1=C(O)C2(O)C(=O)c3c(c(C)c4ccc(C)c(O)c4c3O)CC2C(N)C1=O` (stereo not given), the T/C by setting is: under setting [6], 109 % of control; (dose: 3.13 mg/kg/injection, schedule: Q01DX009 (ip), vehicle: saline with Tween-80) 104 % of control; under setting [7], 118 % of control.
For `Nc1nc(Cc2ccccc2)c(CCCNc2ccccc2)c(=O)[nH]1`, the T/C is 107 % of control under setting [7], 98 % of control under setting [8] and 96 % of control under setting [9].
For the compound `S=P(N1CCCCCC1)(N1CC1)N1CC1`, the T/C was 154 % of control (dose: 16.5 mg/kg/injection, schedule: Q01DX009 (ip), vehicle: saline); 195 % of control under setting [10]; 122 % of control (dose: 37.5 mg/kg/injection, schedule: Q01DX009 (ip), vehicle: saline).
As for `Clc1ccc(C[P+](c2ccccc2)(c2ccccc2)c2ccccc2)cc1Cl`, the T/C by setting is: (dose: 0.45 mg/kg/injection, schedule: Q01DX009 (ip), vehicle: saline) 104 % of control; (dose: 0.9 mg/kg/injection, schedule: Q01DX009 (ip), vehicle: saline) 100 % of control; (dose: 1.35 mg/kg/injection, schedule: Q01DX001 (ip), vehicle: saline) 100 % of control; (dose: 1.8 mg/kg/injection, schedule: Q01DX009 (ip), vehicle: saline) 91 % of control; (dose: 2.7 mg/kg/injection, schedule: Q01DX001 (ip), vehicle: saline) 95 % of control; (dose: 3.6 mg/kg/injection, schedule: Q01DX009 (ip), vehicle: saline) 108 % of control.
As for `O=C(CBr)c1cccnc1`, the T/C runs as follows: (dose: 6.25 mg/kg/injection, schedule: Q04DX003 (ip), vehicle: saline) 104 % of control; (dose: 12.5 mg/kg/injection, schedule: Q04DX003 (ip), vehicle: saline) 104 % of control; under setting [11], 95 % of control.
On to `COC(=O)N1C=Cc2ccccc2C1C#N` (stereo not given), for which the T/C was 104 % of control (dose: 25.0 mg/kg/injection, schedule: Q01DX001 (ip), vehicle: other); 105 % of control under setting [8]; 100 % of control (dose: 25.0 mg/kg/injection, schedule: Q04DX003 (ip), vehicle: saline with Tween-80); 90 % of control (dose: 50.0 mg/kg/injection, schedule: Q01DX001 (ip), vehicle: other); 110 % of control under setting [9]; 104 % of control (dose: 50.0 mg/kg/injection, schedule: Q04DX003 (ip), vehicle: saline with Tween-80). In addition, the T/C is 86 % of control (dose: 100.0 mg/kg/injection, schedule: Q01DX001 (ip), vehicle: other); 110 % of control (dose: 100.0 mg/kg/injection, schedule: Q01DX009 (ip), vehicle: saline with Tween-80); 100 % of control (dose: 100.0 mg/kg/injection, schedule: Q04DX003 (ip), vehicle: saline with Tween-80).
In the case of `CCOC(=O)c1c(C)[nH]c(C)c1-c1ccccc1`, the T/C (dose: 100.0 mg/kg/injection, schedule: Q01DX001 (ip), vehicle: Klucel (hydroxypropylcellulose) (HPC)) is 109 % of control; the T/C (dose: 200.0 mg/kg/injection, schedule: Q01DX001 (ip), vehicle: Klucel (hydroxypropylcellulose) (HPC)) is 109 % of control; the T/C (dose: 400.0 mg/kg/injection, schedule: Q01DX001 (ip), vehicle: Klucel (hydroxypropylcellulose) (HPC)) was 109 % of control.
As for `CCCCCC(CN(C)C)C(O)/C=C\c1ccccc1` (stereo not given), the T/C (dose: 3.13 mg/kg/injection, schedule: Q01DX009 (ip), vehicle: saline) is 100 % of control; the T/C (dose: 6.25 mg/kg/injection, schedule: Q01DX009 (ip), vehicle: saline) was 117 % of control; the T/C under setting [12] is 119 % of control; the T/C under setting [1] is 104 % of control; the T/C under setting [2] is 99 % of control.
On to `O=c1[nH]nc(-c2ccccc2)nc1/C(=N\Nc1ccccc1)c1ccccc1`, for which the T/C under setting [6] is 92 % of control; the T/C (dose: 3.12 mg/kg/injection, schedule: Q01DX009 (ip), vehicle: saline with Tween-80) is 107 % of control; the T/C under setting [7] is 95 % of control and 98 % of control; the T/C (dose: 12.5 mg/kg/injection, schedule: Q01DX009 (ip), vehicle: saline with Tween-80) was 101 % of control; the T/C under setting [8] was 92 % of control.
With `O=C(c1cc2c3ccccc3ccc2c2ccccc12)C(Br)Br`, the T/C under setting [8] is 113 % of control.
Consider `Cc1ccc(S(=O)(=O)N(C)c2ccc(I)c(Cl)c2Cl)cc1`, for which the T/C was 100 % of control (dose: 100.0 mg/kg/injection, schedule: Q04DX003 (ip), vehicle: Klucel (hydroxypropylcellulose) (HPC)); 90 % of control (dose: 200.0 mg/kg/injection, schedule: Q04DX003 (ip), vehicle: Klucel (hydroxypropylcellulose) (HPC)); 90 % of control (dose: 400.0 mg/kg/injection, schedule: Q04DX003 (ip), vehicle: Klucel (hydroxypropylcellulose) (HPC)).
For `N[C@@H](Cc1ccc(O)c(O)c1)C(=O)O`, the T/C reads like this: under setting [13], 92 % of control; under setting [14], 96 % of control; under setting [15], 100 % of control; under setting [16], 107 % of control.
As to `CNC(C)Cc1ccccc1OC` (stereo not given), the T/C under setting [12] is 89 % of control; the T/C under setting [10] is 89 % of control; the T/C under setting [11] was 88 % of control; the T/C under setting [1] is 92 % of control; the T/C (dose: 50.0 mg/kg/injection, schedule: Q04DX003 (ip), vehicle: saline) was 92 % of control.
Take `CC1(C)O[C@]2(C)CC[C@@H]1[C@@H](O)[C@@H]2N1CCOCC1`: the T/C was 108 % of control (dose: 50.0 mg/kg/injection, schedule: Q01DX005 (ip), vehicle: saline); 106 % of control (dose: 100.0 mg/kg/injection, schedule: Q01DX005 (ip), vehicle: saline); 104 % of control (dose: 200.0 mg/kg/injection, schedule: Q01DX005 (ip), vehicle: saline).
As to `C[N+](C)(C)CC[N+](C)(C)C`, the T/C by setting is: under setting [2], 93 % of control; under setting [3], 93 % of control; under setting [4], 101 % of control; under setting [5], 118 % of control; (dose: 400.0 mg/kg/injection, schedule: Q01DX009 (ip), vehicle: saline) 93 % of control; (dose: 400.0 mg/kg/injection, schedule: Q04DX003 (ip), vehicle: saline) 107 % of control.
For `COC1CC(C)(O)C(OC2CCC(OC(=O)C(C)C(O)c3ccc4c(c3)C(=O)C=C(C)C4=O)C(C)O2)C(C)O1` (stereo not given), the T/C (dose: 1.25 mg/kg/injection, schedule: Q01DX009 (ip), vehicle: saline) was 100 % of control and 103 % of control; the T/C (dose: 2.5 mg/kg/injection, schedule: Q01DX009 (ip), vehicle: saline) was 94 % of control and 100 % of control; the T/C (dose: 5.0 mg/kg/injection, schedule: Q01DX009 (ip), vehicle: saline) is 99 % of control; the T/C (dose: 10.0 mg/kg/injection, schedule: Q01DX009 (ip), vehicle: saline) is 99 % of control.
On to `CC(C)(C)[Si](OC(=O)N(CCCl)CCCl)(c1ccccc1)c1ccccc1`, for which the T/C by setting is: (dose: 50.0 mg/kg/injection, schedule: Q01DX001 (ip), vehicle: saline with Tween-80) 100 % of control; (dose: 100.0 mg/kg/injection, schedule: Q01DX001 (ip), vehicle: saline with Tween-80) 118 % of control and 124 % of control.
For `CC1(C)SC2C(NC(=O)C(C(=O)O)c3ccccc3)C(=O)N2C1C(=O)O` (stereo not given), the T/C under setting [13] is 122 % of control, the T/C under setting [14] is 113 % of control, the T/C under setting [15] was 113 % of control and the T/C under setting [16] is 118 % of control.
For `CC1(C)CC(=O)C=C(NCc2ccccc2)C1`, the T/C reads like this: (dose: 37.5 mg/kg/injection, schedule: Q01DX009 (ip), vehicle: Klucel (hydroxypropylcellulose) (HPC)) 100 % of control; (dose: 75.0 mg/kg/injection, schedule: Q01DX009 (ip), vehicle: Klucel (hydroxypropylcellulose) (HPC)) 100 % of control; (dose: 150.0 mg/kg/injection, schedule: Q01DX009 (ip), vehicle: Klucel (hydroxypropylcellulose) (HPC)) 100 % of control.
